The target in the assay is BCL6 (Homo sapiens (Human), UniProt P41182). Briefly: Immunofluorescence high content imaging of BCL6 degradation in T47D cells. Format: cell-based. Summed up:
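Read-out is BCL6 immunofluorescence quantified by high-content imaging (10×, 4 fields per well) of T47D breast cancer cells. Cells were exposed for 3 days to degrader in an 11-point, 3-fold serial dilution reaching a final top concentration of 0.1 or 1 μM.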

Like-named read-outs stand apart in the source and are kept apart here. Where only a bound is given, the exact number is not on record here.

For the molecule `CNC(=O)COc1cc2cc(Nc3nc(N4CCC(CN5CC6(C5)CN(c5ccc7c(c5)C(=O)N(C5CCC(=O)NC5=O)C7=O)C6)CC4)ncc3Cl)ccc2n(C(C)C)c1=O` (stereo not shown) [compound 306, 2-{[6-({5-chloro-2-[4-({6-[2-(2,6-dioxopiperidin-3-yl)-1,3-dioxo-2,3-dihydro-1H-isoindol-5-yl]-2,6-diazaspiro[3.3]heptan-2-yl}methyl)piperidin-1-yl]pyrimidin-4-yl}amino)-2-oxo-1-(propan-2-yl)-1,2-dihydroquinolin-3-yl]oxy}-N-methylacetamide], the IC50 was under 10 nM. The molecule also gave a maximal degradation (Dmax) (T47D) of at least 70%.

`CNC(=O)COc1cc2cc(Nc3nc(N4CCN(C(C)(C)C5CCN(c6cccc7c6C(=O)N(C6CCC(=O)NC6=O)C7=O)CC5)CC4)ncc3Cl)ccc2n(C(C)C)c1=O` (stereo not shown) [compound 307, 2-{[6-({5-chloro-2-[4-(2-{1-[2-(2,6-dioxopiperidin-3-yl)-1,3-dioxo-2,3-dihydro-1H-isoindol-4-yl]piperidin-4-yl}propan-2-yl)piperazin-1-yl]pyrimidin-4-yl}amino)-2-oxo-1-(propan-2-yl)-1,2-dihydroquinolin-3-yl]oxy}-N-methylacetamide] gave an IC50 of under 10 nM. Under “T47D”, this molecule gave a Dmax of 50 to 70%.

The molecule `CNC(=O)COc1cc2cc(Nc3cc(N4CCN(C(C)(C)C5CCN(c6ccc7c(c6)C(=O)N(C6CCC(=O)NC6=O)C7=O)CC5)CC4)ncc3Cl)ccc2n(C(C)C)c1=O` (stereo not shown) [compound 308, 2-{[6-({5-chloro-2-[4-(2-{1-[2-(2,6-dioxopiperidin-3-yl)-1,3-dioxo-2,3-dihydro-1H-isoindol-5-yl]piperidin-4-yl}propan-2-yl)piperazin-1-yl]pyridin-4-yl}amino)-2-oxo-1-(propan-2-yl)-1,2-dihydroquinolin-3-yl]oxy}-N-methylacetamide] had an IC50 of 10 to 50 nM. The maximal degradation (Dmax) (T47D) is under 50%.

Take `CCn1c(=O)c(OCC(=O)NC)cc2cc(Nc3nc(N4CCC(OC5CN(CC6CN(c7ccc8c(c7)C(=O)N(C7CCC(=O)NC7=O)C8=O)C6)C5)CC4)ncc3Cl)ccc21` (stereo not shown) [compound 309, 2-[(6-{[5-chloro-2-(4-{[1-({1-[2-(2,6-dioxopiperidin-3-yl)-1,3-dioxo-2,3-dihydro-1H-isoindol-5-yl]azetidin-3-yl}methyl)azetidin-3-yl]oxy}piperidin-1-yl)pyrimidin-4-yl]amino}-1-ethyl-2-oxo-1,2-dihydroquinolin-3-yl)oxy]-N-methylacetamide]: the IC50 fell in the range of 10 to 50 nM. For the same molecule, the Dmax (T47D) is 50 to 70%.

For the molecule `CCn1c(=O)c(OCC(=O)NC)cc2cc(Nc3nc(N4CCN(CC5CCN(c6cccc7c6C(=O)N(C6CCC(=O)NC6=O)C7=O)CC5)CC4)ncc3Cl)ccc21` (stereo not shown) [compound 310, 2-{[6-({5-chloro-2-[4-({1-[2-(2,6-dioxopiperidin-3-yl)-1,3-dioxo-2,3-dihydro-1H-isoindol-4-yl]piperidin-4-yl}methyl)piperazin-1-yl]pyrimidin-4-yl}amino)-1-ethyl-2-oxo-1,2-dihydroquinolin-3-yl]oxy}-N-methylacetamide], the half-inhibitory concentration (IC50) was under 10 nM. Further, the Dmax (T47D) is 50 to 70%.

Molecule `CNC(=O)COc1cc2cc(Nc3nc(N4CCN(CC5CCN(c6cccc7c6C(=O)N(C6CCC(=O)NC6=O)C7=O)CC5)CC4)ncc3Cl)ccc2n(C(C)C)c1=O` (stereo not shown) [compound 311, 2-{[6-({5-chloro-2-[4-({1-[2-(2,6-dioxopiperidin-3-yl)-1,3-dioxo-2,3-dihydro-1H-isoindol-4-yl]piperidin-4-yl}methyl)piperazin-1-yl]pyrimidin-4-yl}amino)-2-oxo-1-(propan-2-yl)-1,2-dihydroquinolin-3-yl]oxy}-N-methylacetamide] came in with an IC50 of under 10 nM. For the setting “T47D”, this molecule registered a Dmax of at least 70%.

Molecule `CCn1c(=O)c(OCC(=O)NC)cc2cc(Nc3nc(N4CCN(C(C)(C)C5CCN(c6cccc7c6C(=O)N(C6CCC(=O)NC6=O)C7=O)CC5)CC4)ncc3Cl)ccc21` (stereo not shown) [compound 312, 2-{[6-({5-chloro-2-[4-(2-{1-[2-(2,6-dioxopiperidin-3-yl)-1,3-dioxo-2,3-dihydro-1H-isoindol-4-yl]piperidin-4-yl}propan-2-yl)piperazin-1-yl]pyrimidin-4-yl}amino)-1-ethyl-2-oxo-1,2-dihydroquinolin-3-yl]oxy}-N-methylacetamide] had a 50% inhibitory concentration (IC50) of under 10 nM. The same molecule yielded a maximal degradation (Dmax) (T47D) of at least 70%.

`CCn1c(=O)c(OCC(=O)NC)cc2cc(Nc3nc(N4CCN(C(C)(C)C5CCN(c6ccc7c(c6)CN(C6CCC(=O)NC6=O)C7=O)CC5)CC4)ncc3Cl)ccc21` (stereo not shown) [compound 313, 2-{[6-({5-chloro-2-[4-(2-{1-[2-(2,6-dioxopiperidin-3-yl)-1-oxo-2,3-dihydro-1H-isoindol-5-yl]piperidin-4-yl}propan-2-yl)piperazin-1-yl]pyrimidin-4-yl}amino)-1-ethyl-2-oxo-1,2-dihydroquinolin-3-yl]oxy}-N-methylacetamide] returned a half-inhibitory concentration (IC50) of under 10 nM. Also, the Dmax (T47D) lay within 50 to 70%.

For the setting “T47D cells”, `CCCn1c(=O)c(OCC(=O)NC)cc2cc(Nc3nc(N4CCN(CC5CCN(c6ccc7c(c6)C(=O)N(C6CCC(=O)NC6=O)C7=O)CC5)CC4)ncc3Cl)ccc21` (stereo not shown) [compound 314, 2-{[6-({5-chloro-2-[4-({1-[2-(2,6-dioxopiperidin-3-yl)-1,3-dioxo-2,3-dihydro-1H-isoindol-5-yl]piperidin-4-yl}methyl)piperazin-1-yl]pyrimidin-4-yl}amino)-2-oxo-1-propyl-1,2-dihydroquinolin-3-yl]oxy}-N-methylacetamide] returned a Dmax of 50 to 70% and a half-inhibitory concentration (IC50) of 10 to 50 nM.

Under “T47D cells”, `CNC(=O)COc1cc2cc(Nc3nc(N4CCN(C(C)(C)C5CCN(c6ccc(C(=O)NC7CCC(=O)NC7=O)c(OC)c6)CC5)CC4)ncc3Cl)ccc2n(C)c1=O` (stereo not shown) [compound 315, 4-[4-(2-{4-[5-chloro-4-({1-methyl-3-[(methylcarbamoyl)methoxy]-2-oxo-1,2-dihydroquinolin-6-yl}amino)pyrimidin-2-yl]piperazin-1-yl}propan-2-yl)piperidin-1-yl]-N-(2,6-dioxopiperidin-3-yl)-2-methoxybenzamide] came in with a Dmax of 50 to 70% and an IC50 of 10 to 50 nM.

Turning to `CCn1c(=O)c(OCC(=O)NC)cc2cc(Nc3nc(N4CCC(CN5CC(C6CN(c7ccc8c(c7)C(=O)N(C7CCC(=O)NC7=O)C8=O)C6)C5)CC4)ncc3Cl)ccc21` (stereo not shown) [compound 316, 2-{[6-({5-chloro-2-[4-({1′-[2-(2,6-dioxopiperidin-3-yl)-1,3-dioxo-2,3-dihydro-1H-isoindol-5-yl]-[3,3′-biazetidin]-1-yl}methyl)piperidin-1-yl]pyrimidin-4-yl}amino)-1-ethyl-2-oxo-1,2-dihydroquinolin-3-yl]oxy}-N-methylacetamide], under “T47D cells”, the Dmax lay within 50 to 70% and the 50% inhibitory concentration (IC50) was under 10 nM.

`CCCCn1c(=O)c(OCC(=O)NC)cc2cc(Nc3nc(N4CCN(CC5CCN(c6ccc7c(c6)C(=O)N(C6CCC(=O)NC6=O)C7=O)CC5)CC4)ncc3Cl)ccc21` (stereo not shown) [compound 317, 2-{[1-butyl-6-({5-chloro-2-[4-({1-[2-(2,6-dioxopiperidin-3-yl)-1,3-dioxo-2,3-dihydro-1H-isoindol-5-yl]piperidin-4-yl}methyl)piperazin-1-yl]pyrimidin-4-yl}amino)-2-oxo-1,2-dihydroquinolin-3-yl]oxy}-N-methylacetamide]: for the setting “T47D cells”, the maximal degradation (Dmax) is 50 to 70% and the IC50 is under 10 nM.

Under “T47D cells”, `CCCn1c(=O)c(OCC(=O)NC)cc2cc(Nc3nc(N4CCC[C@H](COc5cccc6c5C(=O)N(C5CCC(=O)NC5=O)C6=O)C4)ncc3Cl)ccc21` (stereo partly drawn) [compound 318, 2-{[6-({5-chloro-2-[(3S)-3-({[2-(2,6-dioxopiperidin-3-yl)-1,3-dioxo-2,3-dihydro-1H-isoindol-4-yl]oxy}methyl)piperidin-1-yl]pyrimidin-4-yl}amino)-2-oxo-1-propyl-1,2-dihydroquinolin-3-yl]oxy}-N-methylacetamide] came in with a maximal degradation (Dmax) of 50 to 70% and a half-maximal inhibitory concentration (IC50) of 50 to 100 nM.

Under “T47D cells”, `CNC(=O)COc1cc2cc(Nc3nc(N4CCN(CC5CCN(c6cccc(C(=O)NC7CCC(=O)NC7=O)c6)CC5)CC4)ncc3Cl)ccc2n(C)c1=O` (stereo not shown) [compound 319, 3-[4-({4-[5-chloro-4-({1-methyl-3-[(methylcarbamoyl)methoxy]-2-oxo-1,2-dihydroquinolin-6-yl}amino)pyrimidin-2-yl]piperazin-1-yl}methyl)piperidin-1-yl]-N-(2,6-dioxopiperidin-3-yl)benzamide] showed a Dmax of under 50% and an IC50 of 50 to 100 nM.

Turning to `CNC(=O)COc1cc2cc(Nc3nc(N4CCN(CC5CCN(c6cccc(C(=O)NC7CCC(=O)NC7=O)n6)CC5)CC4)ncc3Cl)ccc2n(C)c1=O` (stereo not shown) [compound 320, 6-[4-({4-[5-chloro-4-({1-methyl-3-[(methylcarbamoyl)methoxy]-2-oxo-1,2-dihydroquinolin-6-yl}amino)pyrimidin-2-yl]piperazin-1-yl}methyl)piperidin-1-yl]-N-(2,6-dioxopiperidin-3-yl)pyridine-2-carboxamide], for the setting “T47D cells”, the maximal degradation (Dmax) was under 50% and the IC50 is under 10 nM.

In the case of `CNC(=O)COc1cc2cc(Nc3nc(N4CCN(CCN5CCN(c6cccc7c6C(=O)N(C6CCC(=O)NC6=O)C7=O)CC5)CC4)ncc3Cl)ccc2n(C)c1=O` (stereo not shown) [compound 321, 2-{[6-({5-chloro-2-[4-(2-{4-[2-(2,6-dioxopiperidin-3-yl)-1,3-dioxo-2,3-dihydro-1H-isoindol-4-yl]piperazin-1-yl}ethyl)piperazin-1-yl]pyrimidin-4-yl}amino)-1-methyl-2-oxo-1,2-dihydroquinolin-3-yl]oxy}-N-methylacetamide], where the note is “T47D cells”, the Dmax was in the range of 50 to 70% and the IC50 is under 10 nM.

Under “T47D cells”, `CNC(=O)COc1cc2cc(Nc3nc(N4CCN(CCC5CCN(c6ccc7c(c6)C(=O)N(C6CCC(=O)NC6=O)C7=O)CC5)CC4)ncc3Cl)ccc2n(C)c1=O` (stereo not shown) [compound 322, 2-{[6-({5-chloro-2-[4-(2-{1-[2-(2,6-dioxopiperidin-3-yl)-1,3-dioxo-2,3-dihydro-1H-isoindol-5-yl]piperidin-4-yl}ethyl)piperazin-1-yl]pyrimidin-4-yl}amino)-1-methyl-2-oxo-1,2-dihydroquinolin-3-yl]oxy}-N-methylacetamide] came in with a Dmax of 50 to 70% and an IC50 of 10 to 50 nM.
